From patent US20260151383A1, “HETEROCYCLIC COMPOUNDS AND USES THEREOF” (KayoThera Inc., priority 2022, published 2026)

Tests used:
Assay type in all cases: biochemical
Conditions in all cases: recombinant enzyme, 20° C., activity level classes
hALDH1a3 = molecular target: T1, hALDH1a3 (Homo sapiens, UniProt P47895); assay: Aldh1a3 enzyme inhibition assay (resorufin fluorescence), human enzyme
T1 construct: made in house; host or cells: E. coli BL21-DE3
T1 sequence (P47895 1-512): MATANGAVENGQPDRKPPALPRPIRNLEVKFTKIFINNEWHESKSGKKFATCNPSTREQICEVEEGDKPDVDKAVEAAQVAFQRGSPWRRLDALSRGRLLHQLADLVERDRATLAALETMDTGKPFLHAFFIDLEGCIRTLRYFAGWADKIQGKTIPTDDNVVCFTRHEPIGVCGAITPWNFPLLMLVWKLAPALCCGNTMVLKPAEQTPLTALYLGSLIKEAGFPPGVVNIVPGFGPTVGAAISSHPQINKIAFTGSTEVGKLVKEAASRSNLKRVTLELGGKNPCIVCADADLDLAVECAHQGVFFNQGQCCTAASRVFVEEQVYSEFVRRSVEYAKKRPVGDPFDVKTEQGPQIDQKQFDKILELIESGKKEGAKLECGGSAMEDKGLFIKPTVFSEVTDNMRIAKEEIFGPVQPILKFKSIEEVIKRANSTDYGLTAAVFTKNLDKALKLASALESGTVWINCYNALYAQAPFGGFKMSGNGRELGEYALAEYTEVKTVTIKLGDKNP

mALDH1a3 = molecular target: T2, mALDH1a3 (Mus musculus, UniProt Q9JHW9); assay: Aldh1a3 enzyme inhibition assay (resorufin fluorescence), mouse enzyme
T2 construct: made in house; host or cells: E. coli BL21-DE3
T2 sequence (Q9JHW9 1-512): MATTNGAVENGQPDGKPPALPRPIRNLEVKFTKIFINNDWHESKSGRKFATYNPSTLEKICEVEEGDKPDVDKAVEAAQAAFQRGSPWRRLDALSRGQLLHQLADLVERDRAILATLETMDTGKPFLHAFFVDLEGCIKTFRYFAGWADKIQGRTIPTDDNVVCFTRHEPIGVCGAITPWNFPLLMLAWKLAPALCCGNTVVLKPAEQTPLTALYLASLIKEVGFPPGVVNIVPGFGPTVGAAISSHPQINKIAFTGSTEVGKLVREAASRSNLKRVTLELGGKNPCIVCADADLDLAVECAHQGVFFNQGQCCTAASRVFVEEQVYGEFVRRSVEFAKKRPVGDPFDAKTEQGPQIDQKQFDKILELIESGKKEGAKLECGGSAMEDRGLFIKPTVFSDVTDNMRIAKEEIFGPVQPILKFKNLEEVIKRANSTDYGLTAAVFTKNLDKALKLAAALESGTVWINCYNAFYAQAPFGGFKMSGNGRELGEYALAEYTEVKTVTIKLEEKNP
Text: Recombinant enzyme and inhibitor added immediately before assay. Reaction rate measured by resorufin fluorescence.

hALDH1a2 = molecular target: T3, hALDH1a2 (Homo sapiens, UniProt O94788); assay: Aldh1a2 enzyme inhibition assay (resorufin fluorescence), human enzyme
T3 construct: made in house; host or cells: E. coli BL21-DE3
T3 sequence (O94788 1-518): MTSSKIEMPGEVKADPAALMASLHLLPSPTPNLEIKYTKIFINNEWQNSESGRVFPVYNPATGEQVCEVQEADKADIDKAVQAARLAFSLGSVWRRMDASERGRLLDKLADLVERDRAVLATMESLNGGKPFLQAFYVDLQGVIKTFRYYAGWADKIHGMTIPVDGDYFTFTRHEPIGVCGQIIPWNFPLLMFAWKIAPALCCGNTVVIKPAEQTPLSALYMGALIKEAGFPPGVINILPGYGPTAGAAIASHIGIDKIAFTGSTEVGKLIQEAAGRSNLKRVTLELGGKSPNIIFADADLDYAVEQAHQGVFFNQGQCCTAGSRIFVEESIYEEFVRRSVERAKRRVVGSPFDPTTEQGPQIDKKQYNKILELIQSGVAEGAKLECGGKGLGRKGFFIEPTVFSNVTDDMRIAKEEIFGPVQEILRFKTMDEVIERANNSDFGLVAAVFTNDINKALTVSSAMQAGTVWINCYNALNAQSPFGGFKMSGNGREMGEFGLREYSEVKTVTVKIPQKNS
Text: (§1) Recombinant enzyme and inhibitor added immediately before assay. Reaction rate measured by resorufln fluorescence.

mALDH1a2 = molecular target: T4, mALDH1a2 (Mus musculus, UniProt Q62148); assay: Aldh1a2 enzyme inhibition assay (resorufin fluorescence), mouse enzyme
T4 construct: made in house; host or cells: E. coli BL21-DE3
T4 sequence (Q62148 1-518): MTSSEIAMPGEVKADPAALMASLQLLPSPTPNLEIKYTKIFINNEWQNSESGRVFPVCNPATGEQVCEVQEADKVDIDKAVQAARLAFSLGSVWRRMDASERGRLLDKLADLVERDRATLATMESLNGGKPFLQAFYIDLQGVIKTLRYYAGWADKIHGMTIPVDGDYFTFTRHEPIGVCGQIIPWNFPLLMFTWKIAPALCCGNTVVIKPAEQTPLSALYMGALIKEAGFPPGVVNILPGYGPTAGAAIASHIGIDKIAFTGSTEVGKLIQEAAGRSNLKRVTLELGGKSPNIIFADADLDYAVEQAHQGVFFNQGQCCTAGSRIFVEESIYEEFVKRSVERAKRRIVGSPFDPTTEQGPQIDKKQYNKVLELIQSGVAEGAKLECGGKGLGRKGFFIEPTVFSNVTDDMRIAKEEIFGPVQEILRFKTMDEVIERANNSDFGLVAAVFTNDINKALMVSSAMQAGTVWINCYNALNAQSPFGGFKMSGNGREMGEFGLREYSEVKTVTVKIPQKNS
Text: as §1

SMILES	IC50 (hALDH1a3) [nM]	IC50 (mALDH1a3) [nM]	IC50 (hALDH1a2) [nM]	IC50 (mALDH1a2) [nM]	mAldh1a3 IC50 (mALDH1a3)	hAldh1a3 IC50 (hALDH1a3)
O=C1CCc2cc(NC(=O)c3ccncc3-c3ccccc3)cc(Cl)c2N1 [Compound 20]	1000 to 5000	1000 to 5000	< 100	100 to 250	–	–
Cc1cc(NC(=O)c2ccncc2-c2ccc(O)cc2)cc2c1NC(=O)CC2 [Compound 19]	–	–	1000 to 5000	1000 to 5000	No activity	No activity
CCc1ncsc1C(=O)Nc1cc(Cl)c2c(c1)CCC(=O)N2 [Compound 83]	–	–	< 100	< 100	–	–
O=C1CCc2cc(NC(=O)c3ncsc3CC(F)(F)F)cc(Cl)c2N1 [Compound 75]	< 100	100 to 250	100 to 250	250 to 1000	–	–
O=C(Nc1cc(Cl)c2c(c1)C1CC1C(=O)N2)c1scnc1CC(F)(F)F (centres unmarked) [Compound 37]	100 to 250	< 100	100 to 250	100 to 250	–	–
CCc1ncoc1C(=O)Nc1cc(F)c2c(c1)C1CC1C(=O)N2 (centres unmarked) [Compound 62]	1000 to 5000	1000 to 5000	> 5000	> 5000	–	–
Cc1cc(NC(=O)c2scnc2C)cc2c1NC(=O)CC2 [Compound 67]	250 to 1000	250 to 1000	1000 to 5000	1000 to 5000	–	–
Cc1cc(NC(=O)c2scnc2CC(C)C)cc2c1NC(=O)CC2 [Compound 65]	100 to 250	250 to 1000	1000 to 5000	1000 to 5000	–	–
Cc1cc(NC(=O)c2ccccc2-c2cccc(F)c2)cc2c1NC(=O)CC2 [Compound 23]	> 5000	> 5000	1000 to 5000	1000 to 5000	–	–
Cc1c(F)c(NC(=O)c2scnc2CC(F)(F)F)cc2c1NC(=O)CC2 [Compound 78]	–	–	250 to 1000	1000 to 5000	–	–
Cc1c(Cl)c(NC(=O)c2scnc2CC(F)(F)F)cc2c1NC(=O)CC2 [Compound 80]	–	–	100 to 250	250 to 1000	–	–

Second part, the compound after the results:

IC50 (hALDH1a3) [nM]	IC50 (mALDH1a3) [nM]	IC50 (hALDH1a2) [nM]	IC50 (mALDH1a2) [nM]	mAldh1a3 IC50 (mALDH1a3)	hAldh1a3 IC50 (hALDH1a3)	SMILES
1000 to 5000	1000 to 5000	100 to 250	100 to 250	–	–	Cc1cc(NC(=O)c2ccncc2-c2ccccc2)cc2c1NC(=O)CC2 [Compound 1, N-(8-methyl-2-oxo-1,2,3,4-tetrahydroquinolin-6-yl)-3-phenylisonicotinamide]
1000 to 5000	–	100 to 250	100 to 250	No activity	–	O=C1CCc2cc(NC(=O)c3ccncc3-c3ccccc3F)cc(Cl)c2N1 [Compound 26]
–	–	> 5000	> 5000	No activity	No activity	Cc1cc(NC(=O)c2ccncc2-c2ccc(C#N)cc2)cc2c1NC(=O)CC2 [Compound 14]
250 to 1000	100 to 250	1000 to 5000	1000 to 5000	–	–	Cc1cc(NC(=O)c2ocnc2CC(F)(F)F)cc2c1NC(=O)CC2 [Compound 56]
100 to 250	100 to 250	100 to 250	250 to 1000	–	–	Cc1c(F)c(NC(=O)c2ncsc2CC(F)(F)F)cc2c1NC(=O)CC2 [Compound 72]
–	–	1000 to 5000	1000 to 5000	No activity	No activity	Cc1cccc(-c2cnccc2C(=O)Nc2cc(C)c3c(c2)CCC(=O)N3)c1 [Compound 11, N-(8-methyl-2-oxo-1,2,3,4-tetrahydroquinolin-6-yl)-3-(m-tolyl)isonicotinamide]
< 100	< 100	< 100	< 100	–	–	CCc1cnsc1C(=O)Nc1cc(C)c2c(c1)C1CC1C(=O)N2 (centres unmarked) [Compound 41]
> 5000	–	1000 to 5000	1000 to 5000	No activity	–	O=C1CCc2cc(NC(=O)c3ccncc3-c3ccccc3)ccc2N1 [Compound 21]
–	–	250 to 1000	250 to 1000	–	–	CCc1ncsc1C(=O)Nc1cc2c(c(C)c1Cl)NC(=O)CC2 [Compound 81]
–	–	250 to 1000	250 to 1000	–	–	CCc1ncsc1C(=O)Nc1cc2c(c(C)c1F)NC(=O)CC2 [Compound 79]
